For experiment [1], the target named is T1, Rhodobacter sphaeroides (Rb.s.) ADPG Ppase (Cereibacter sphaeroides, UniProt Q9RNH7).
T1 construct: made in house
In words: ADPG Ppase enzyme assay (14C Glc-1-P to ADPGlucose) with ADPG borano analogs. It counts as biochemical. The arrangement: *2.2: unit not given here. As to conditions: for inhibition of Rb.s. ADPG Ppase: 500 μM. The source says:
Assaying for ADPGlc synthesis activity involves measuring the amount of 14-C labeled Glc-1-P converted to ADPGlucose (Preiss, J., Shen, L., Greenberg, E., and Gentner, N. (1966) Biochemistry 5, 1833-1845). Briefly, unreacted Glc-1-P is separated from product by the following steps: 1) digestion with alkaline phosphatase (thus removing the negatively charged phosphate); 2) spotting an aliquot of the reaction mixture on to positively charged DE-81 filters (Whatman); and 3) washing the filters with water (thus removing the now neutral C-14 glucose).
To assess the effect of a putative inhibitor, enzyme assays are performed at a subsaturating concentration of substrate (depending on the enzyme, ATP=0.2-1 mM, Glc-1-P=0.5 mM) under standard conditions in the absence and presence of the major activator for each enzyme (1-5 mM depending on enzyme). In this way, the effect of the inhibitors can be evaluated under the range of the expected in vivo conditions. Initial screening of a putative inhibitor typically includes testing at two concentrations (˜25 μM and 1 mM)±major activator with appropriate controls and blanks for a total of 9 assays/inhibitor/enzyme (2 control assays—appropriate enzyme concentrations in the absence of inhibitor, 4 experimental assays; 1 blank in the absence of inhibitors; 2 blanks in the presence of inhibitor (no activator required).
The APDGlc Ppase from Rhodobacter sphaeroides has been used as a model enzyme for initial testing of inhibitors as it has been cloned, sequenced, and expressed in the inventor's laboratory (Meyer et al (1999) Arch. Biochem. Biophys. 372, 179-188; Igarashi, R. Y. and Meyer, C. R. (2000) Arch. Biochem Biophys. 376, 47-58) and the purified recombinant enzyme is readily available. Further, this particular enzyme has the most complex regulation (having partial overlap with nearly every type of ADPG Ppase) and has sufficient homology (ranging from ˜40-70% similarity) to the enzyme primary sequence from the mentioned pathogenic bacteria.
1. OVERVIEW: 2 analogs (ANALOG; stereoisomers I, II) of adenosine-α-P-boranodiphosphoglucose were tested for inhibiting activity against the ADPG Ppase enzyme from Rhodobacter sphaeroides (Rb.s.) ADPG Ppase.
PREMIX: A: 100 mM HEPES (pH 7), 0.5 mg/mL BSA, 0.5 mM Glc-1-P, 0.25 mM ATP subsaturating (near S0.5 value), 5 mM MgCl2, (0.2 U Pyrophosphatase))
(170 μL premix will allow 20 μL for analog vol., 10 μL of E)
II. ANALOG CONC.=5, 50, 500 μM (STOCK CONC.=5 mM) in 50 mM HEPES, pH 7, note that 20 μL of 5 mM in 200 μL assay will yield 500 μM final concentration to obtain 5
• ANALOG I: add 625 μL of HEPES buffer, mix thoroughly • ANALOG II: add 500 μL of HEPES buffer, mix thoroughly 1:10 DILUTION ALIQUOTS OF 5 mM STOCKS are prepared in order to generate stock solutions that will give 50 and 5 μM with the addition of 20 μL. 100 μL aliquots are stored at −20 C RBS ADPG PPASE WT ENZYME CONC.=17 mg/mL (use 1:8000 dilution in Dilution Buffer) The Following Assay Set of 11 are Utilized for Each Analog 1—BLANK (Premix A) 2—BLANK+50 μM ANALOG (A) 3—BLANK+500 μM ANALOG (A) 4—E CON (A) 5—E CON+F6P (B) 6—E+5 μM (A) 7—E+5 μM (B) 8—E+50 μM (A) 9—E+50 μM (B) 10—E+500 μM (A) 11—E+500 μM (B)
Purified Rb.s ADPG Ppase was assayed under standard conditions (0.25 mM ATP [˜S0.5 value], 0.5 mM Glc-1-P, 5 mM Mg, 100 mM HEPES, pH7) in the presence and absence of the activator F6P (1 mM) at 3 concentrations of the analogs: 5, 50, and 500 μM. Analog stock solutions were made in 50 mM HEPES, pH 7). These concentrations should be regarded as estimates as there could have been some breakdown of the compounds during 2 years of storage at −20° C. The analogs had no effect on the background cpm of the assays.

The next experiment has as its system bacteria. The conditions noted are these: cited from earlier work.
For experiment [2] the following is noted: single rinse, mouthrinse, 10 subjects; cited from earlier work.
Setting [3] is: 5 uM analog, premix B (+1 mM F6P).
Setting [4] is: 50 uM analog, premix A (no F6P).
[5] abbreviates: 50 uM analog, premix B (+1 mM F6P).
Setting [6] is: 500 uM analog, premix A (no F6P).
[7] abbreviates: 500 uM analog, premix B (+1 mM F6P).

Where only a bound is given, the exact number is not on record here.

T1 sequence (Q9RNH7 whole entry): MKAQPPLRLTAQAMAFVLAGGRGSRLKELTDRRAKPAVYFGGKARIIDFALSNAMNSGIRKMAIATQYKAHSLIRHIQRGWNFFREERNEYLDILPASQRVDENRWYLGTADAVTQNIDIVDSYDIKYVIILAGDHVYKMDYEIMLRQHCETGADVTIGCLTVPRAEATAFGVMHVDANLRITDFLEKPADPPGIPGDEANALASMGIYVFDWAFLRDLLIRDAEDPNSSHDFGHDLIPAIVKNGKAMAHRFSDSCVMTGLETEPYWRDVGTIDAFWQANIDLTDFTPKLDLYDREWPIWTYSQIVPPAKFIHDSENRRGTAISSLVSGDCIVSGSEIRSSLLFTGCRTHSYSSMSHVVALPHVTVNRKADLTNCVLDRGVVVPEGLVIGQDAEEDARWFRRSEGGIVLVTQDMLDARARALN

For `BP(=O)(OC[C@H]1O[C@@H](n2cnc3c(N)ncnc32)[C@H](O)[C@@H]1O)OP(=O)(O)O[C@H]1O[C@H](CO)[C@@H](O)[C@H](O)[C@H]1O` (single isomer, unassigned) [Analog I, adenosine-α-P-boranodiphosphoglucose], in experiment [1] (5 uM analog, premix A (no F6P)), the “*2.2” value is listed as 0.854, the CPM was found to be 380.67 CPM, the Units/mg was 4.02 Units/mg and the “cor. CPM” value is recorded as 320.34 CPM. For the same compound, in experiment [1] (5 uM analog, premix A (no F6P)), the “dil. Corr” value turned out to be 68.339 nmol/min/µL, the nmol worked out at 0.39 nmol, the nmol/min was 0.085 nmol/min and the nmol/min/uL turned out to be 0.0085 nmol/min/µL. In addition, in experiment [1] (setting [3]), the “*2.2” value was 19.496, the CPM was determined as 7371.33 CPM, the Units/mg is reported as 91.75 Units/mg and the “cor. CPM” value is 7311.00 CPM. Moreover, in experiment [1] (setting [3]), the “dil. Corr” value was 1559.680 nmol/min/µL, the nmol is 8.86 nmol, the nmol/min was found to be 1.950 nmol/min and the nmol/min/uL is 0.1950 nmol/min/µL. In experiment [1] (setting [4]), the “*2.2” value is 0.755, the CPM is reported as 359.33 CPM, the Units/mg is reported as 3.55 Units/mg and the “cor. CPM” value was 283.00 CPM. Also, in experiment [1] (setting [4]), the “dil. Corr” value was determined as 60.373 nmol/min/µL, the nmol is 0.34 nmol, the nmol/min stood at 0.075 nmol/min and the nmol/min/uL is 0.0075 nmol/min/µL. Moreover, in experiment [1] (setting [5]), the “*2.2” value was determined as 18.572, the CPM amounted to 7041.00 CPM, the Units/mg amounted to 87.40 Units/mg and the “cor. CPM” value is 6964.67 CPM. In addition, in experiment [1] (setting [5]), the “dil. Corr” value was 1485.796 nmol/min/µL, the nmol is given as 8.44 nmol, the nmol/min is 1.857 nmol/min and the nmol/min/uL was determined as 0.1857 nmol/min/µL. Also, in experiment [1] (setting [6]), the “*2.2” value turned out to be 0.284, the CPM was determined as 160.00 CPM, the Units/mg worked out at 1.33 Units/mg and the “cor. CPM” value is reported as 106.33 CPM. For the same compound, in experiment [1] (setting [6]), the “dil. Corr” value stood at 22.684 nmol/min/µL, the nmol was found to be 0.13 nmol, the nmol/min came to 0.028 nmol/min and the nmol/min/uL stood at 0.0028 nmol/min/µL. Moreover, in experiment [1] (setting [7]), the “*2.2” value is listed as 11.341, the CPM worked out at 4306.67 CPM, the Units/mg turned out to be 53.37 Units/mg and the “cor. CPM” value worked out at 4253.00 CPM. Further, in experiment [1] (setting [7]), the “dil. Corr” value was found to be 907.307 nmol/min/µL, the nmol is 5.16 nmol, the nmol/min came to 1.134 nmol/min and the nmol/min/uL came out at 0.1134 nmol/min/µL. The “inhibition of Rb.s. ADPG Ppase” value in experiment [1] (absence of the activator F6P) is on record as “about 75%”. In addition, the “inhibition of Rb.s. ADPG Ppase” value in experiment [1] (presence of F6P) was roughly 50%.

Consider `BP(=O)(OC[C@H]1O[C@@H](n2cnc3c(N)ncnc32)[C@H](O)[C@@H]1O)OP(=O)(O)O[C@H]1O[C@H](CO)[C@@H](O)[C@H](O)[C@H]1O` (single isomer, unassigned) [Analog II, adenosine-α-P-boranodiphosphoglucose], for which, in experiment [1] (5 uM analog, premix A (no F6P)), the “*2.2” value is given as 1.122, the CPM stood at 477.00 CPM, the Units/mg came to 5.28 Units/mg and the “cor. CPM” value turned out to be 420.67 CPM. Further, in experiment [1] (5 uM analog, premix A (no F6P)), the “dil. Corr” value was 89.743 nmol/min/µL, the nmol is recorded as 0.51 nmol, the nmol/min came out at 0.112 nmol/min and the nmol/min/uL stood at 0.0112 nmol/min/µL. In experiment [1] (setting [3]), the “*2.2” value worked out at 19.946, the CPM turned out to be 7536.00 CPM, the Units/mg is given as 93.86 Units/mg and the “cor. CPM” value is 7479.67 CPM. In experiment [1] (setting [3]), the “dil. Corr” value is 1595.663 nmol/min/µL, the nmol was 9.07 nmol, the nmol/min was determined as 1.995 nmol/min and the nmol/min/uL was 0.1995 nmol/min/µL. Also, in experiment [1] (setting [4]), the “*2.2” value turned out to be 0.930, the CPM is 399.67 CPM, the Units/mg turned out to be 4.38 Units/mg and the “cor. CPM” value is recorded as 348.67 CPM. Moreover, in experiment [1] (setting [4]), the “dil. Corr” value stood at 74.383 nmol/min/µL, the nmol came to 0.42 nmol, the nmol/min is 0.093 nmol/min and the nmol/min/uL was determined as 0.0093 nmol/min/µL. Moreover, in experiment [1] (setting [5]), the “*2.2” value is reported as 16.305, the CPM stood at 6165.33 CPM, the Units/mg is given as 76.73 Units/mg and the “cor. CPM” value is reported as 6114.33 CPM. Moreover, in experiment [1] (setting [5]), the “dil. Corr” value turned out to be 1304.390 nmol/min/µL, the nmol is on record as 7.41 nmol, the nmol/min worked out at 1.630 nmol/min and the nmol/min/uL came out at 0.1630 nmol/min/µL. Besides, in experiment [1] (setting [6]), the “*2.2” value came out at 0.376, the CPM is recorded as 194.33 CPM, the Units/mg was 1.77 Units/mg and the “cor. CPM” value was determined as 141.00 CPM. In experiment [1] (setting [6]), the “dil. Corr” value is 30.080 nmol/min/µL, the nmol was determined as 0.17 nmol, the nmol/min is listed as 0.038 nmol/min and the nmol/min/uL was determined as 0.0038 nmol/min/µL. Further, in experiment [1] (setting [7]), the “*2.2” value came out at 7.122, the CPM stood at 2724.00 CPM, the Units/mg worked out at 33.51 Units/mg and the “cor. CPM” value is 2670.67 CPM. Moreover, in experiment [1] (setting [7]), the “dil. Corr” value was 569.743 nmol/min/µL, the nmol turned out to be 3.24 nmol, the nmol/min turned out to be 0.712 nmol/min and the nmol/min/uL was determined as 0.0712 nmol/min/µL. Further, in experiment [1] (absence of the activator F6P), the “inhibition of Rb.s. ADPG Ppase” value is listed as “about 70%”. The “inhibition of Rb.s. ADPG Ppase” value in experiment [1] (presence of F6P) is recorded as “about 70%”.

Consider `[F-].[Na+]` [NaF], for which the “increase in concentration necessary to be bacteriocidal” value with bacteria (relative to inhibitory concentration) is recorded as 30 fold. Also, in the experiment on bacteria (vehicles), the “concentration required for inhibitory effects” value is greater than 100 μl/ml.

In the case of `CCCCC(CC)CNC(=N)NC(=N)NCCCCCCNC(=N)NC(=N)NCC(CC)CCCC` (stereo not drawn) [alexidine], in experiment [2], the “return to pre-rinse levels after” value was 5 h.

On to `N=C(NCCCCCCNC(=N)NC(=N)Nc1ccc(Cl)cc1)NC(=N)Nc1ccc(Cl)cc1.O=C(O)[C@H](O)[C@@H](O)[C@H](O)[C@H](O)CO.O=C(O)[C@H](O)[C@@H](O)[C@H](O)[C@H](O)CO` [chlorhexidine gluconate], for which the “return to pre-rinse levels after” value in experiment [2] is 7 h.

Take `CCCCC(CC)CN1CN(CC(CC)CCCC)CC(C)(N)C1` (stereo not drawn) [hexetidine]: the “return to pre-rinse levels after” value in experiment [2] is 1.5 h.
